According to PubChem BioAssay AID328 (DTP/NCI, 2004):
Several values for one entry are separate records, joined by “and”; a condition that tells them apart may be missing. Equal entries are not always repeated. Toxic doses and inconclusive results are not listed.

Tested on: BDF1 mice, P388 leukemia ip, median survival T/C
Experiment: NCI In Vivo Anticancer Drug Screen. Data for tumor model P388 Leukemia (intraperitoneal) in B6D2F1 (BDF1) mice
Details: endpoint: median survival time, higher = longer survival
Outline: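 Steps: implant the tumour, treat one group with compound and another with vehicle, record survival, then divide treated by control.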

[1] = dose: 25.0 mg/kg/injection, schedule: Q01DX009 (ip), vehicle: Klucel (hydroxypropylcellulose) (HPC)
[2] = dose: 50.0 mg/kg/injection, schedule: Q01DX009 (ip), vehicle: saline
[3] = dose: 50.0 mg/kg/injection, schedule: Q01DX009 (ip), vehicle: saline with Tween-80
[4] = dose: 100.0 mg/kg/injection, schedule: Q01DX009 (ip), vehicle: Klucel (hydroxypropylcellulose) (HPC)
[5] = dose: 100.0 mg/kg/injection, schedule: Q04DX003 (ip), vehicle: Klucel (hydroxypropylcellulose) (HPC)
[6] = dose: 200.0 mg/kg/injection, schedule: Q01DX009 (ip), vehicle: Klucel (hydroxypropylcellulose) (HPC)
[7] = dose: 200.0 mg/kg/injection, schedule: Q04DX003 (ip), vehicle: Klucel (hydroxypropylcellulose) (HPC)
[8] = dose: 400.0 mg/kg/injection, schedule: Q04DX003 (ip), vehicle: Klucel (hydroxypropylcellulose) (HPC)
[9] = dose: 100.0 mg/kg/injection, schedule: Q04DX002 (ip), vehicle: saline with Tween-80
[10] = dose: 200.0 mg/kg/injection, schedule: Q04DX002 (ip), vehicle: saline with Tween-80
[11] = dose: 100.0 mg/kg/injection, schedule: Q04DX003 (ip), vehicle: saline
[12] = dose: 400.0 mg/kg/injection, schedule: Q01DX009 (ip), vehicle: Klucel (hydroxypropylcellulose) (HPC)
[13] = dose: 200.0 mg/kg/injection, schedule: Q01DX009 (ip), vehicle: saline with Tween-80

In the case of `O=C(/C(=C\c1ccccc1)CN1CCOCC1)c1ccc(Br)cc1`, the T/C [1] is reported as 104 % of control, the T/C (dose: 37.5 mg/kg/injection, schedule: Q04DX003 (ip), vehicle: Klucel (hydroxypropylcellulose) (HPC)) is reported as 108 % of control and the T/C (dose: 50.0 mg/kg/injection, schedule: Q01DX009 (ip), vehicle: Klucel (hydroxypropylcellulose) (HPC)) is reported as 108 % of control. For the same molecule, the T/C (dose: 75.0 mg/kg/injection, schedule: Q04DX003 (ip), vehicle: Klucel (hydroxypropylcellulose) (HPC)) was 104 % of control and the T/C (dose: 150.0 mg/kg/injection, schedule: Q04DX003 (ip), vehicle: Klucel (hydroxypropylcellulose) (HPC)) was 108 % of control.
With `O=C(O)c1cc(-c2ccccc2)[nH]c1-c1ccccc1` the T/C [2] was 90 % of control.
`COc1ccc(Nc2c3ccccc3nc3ccccc23)cc1` was tested, and the T/C [3] was 208 % of control.
In the case of `BrC1C2CCC(CC2)C1Br` (centres undefined), the T/C [4] is reported as 100 % of control, the T/C [5] is reported as 95 % of control and the T/C [6] is reported as 104 % of control. For the same molecule, the T/C [7] was 95 % of control and the T/C [8] was 91 % of control.
For `C1CC[N-]CC1.C1CC[N-]CC1.C1CC[N-]CC1.[Cl][Rh]([Cl])[Cl]`, the T/C (dose: 12.5 mg/kg/injection, schedule: Q01DX009 (ip), vehicle: saline) was 156 % of control, the T/C (dose: 25.0 mg/kg/injection, schedule: Q01DX009 (ip), vehicle: saline) was 157 % of control and the T/C [2] was 161 % of control and 175 % of control.
For `CSC1C(=O)Nc2c1cccc2[N+](=O)[O-]` (centres undefined), the T/C (dose: 50.0 mg/kg/injection, schedule: Q04DX002 (ip), vehicle: saline with Tween-80) was 96 % of control, the T/C [9] was 92 % of control and the T/C [10] was 99 % of control.
For `CC(CCCc1ccccc1)(C(=O)O)C(=O)O`, the T/C [9] was 96 % of control, the T/C [10] was 98 % of control and the T/C (dose: 400.0 mg/kg/injection, schedule: Q04DX002 (ip), vehicle: saline with Tween-80) was 102 % of control.
In the case of `CCCCN=C(N)c1ccc(NC(=O)c2ccc(C(=O)Nc3ccc(C(N)=NCCCC)cc3)cc2)cc1`, the T/C (dose: 15.0 mg/kg/injection, schedule: Q04DX003 (ip), vehicle: saline with Tween-80) is reported as 122 % of control, the T/C (dose: 26.0 mg/kg/injection, schedule: Q04DX003 (ip), vehicle: saline with Tween-80) is reported as 154 % of control and the T/C (dose: 30.0 mg/kg/injection, schedule: Q01DX009 (ip), vehicle: saline with Tween-80) is reported as 196 % of control. For the same molecule, the T/C (dose: 30.0 mg/kg/injection, schedule: Q04DX003 (ip), vehicle: saline with Tween-80) was 158 % of control and 181 % of control, the T/C (dose: 40.0 mg/kg/injection, schedule: Q04DX003 (ip), vehicle: saline with Tween-80) was 166 % of control and 181 % of control and the T/C (dose: 45.0 mg/kg/injection, schedule: Q04DX003 (ip), vehicle: saline with Tween-80) was 179 % of control. The T/C (dose: 60.0 mg/kg/injection, schedule: Q04DX003 (ip), vehicle: saline with Tween-80) was 163 % of control and 183 % of control and 186 % of control and the T/C (dose: 90.0 mg/kg/injection, schedule: Q04DX003 (ip), vehicle: saline with Tween-80) was 204 % of control.
With `COc1ccc(C(SCC(N)C(=O)O)(c2ccccc2)c2ccc(OC)cc2)cc1` (centres undefined) the T/C (dose: 3.0 mg/kg/injection, schedule: Q01DX009 (ip), vehicle: Klucel (hydroxypropylcellulose) (HPC)) was 123 % of control, the T/C (dose: 4.8 mg/kg/injection, schedule: Q04DX003 (ip), vehicle: Klucel (hydroxypropylcellulose) (HPC)) was 104 % of control and the T/C (dose: 7.0 mg/kg/injection, schedule: Q01DX009 (ip), vehicle: Klucel (hydroxypropylcellulose) (HPC)) was 150 % of control. For the same molecule, the T/C (dose: 7.2 mg/kg/injection, schedule: Q04DX003 (ip), vehicle: Klucel (hydroxypropylcellulose) (HPC)) was 104 % of control, the T/C (dose: 10.0 mg/kg/injection, schedule: Q01DX009 (ip), vehicle: Klucel (hydroxypropylcellulose) (HPC)) was 170 % of control and the T/C (dose: 11.0 mg/kg/injection, schedule: Q04DX003 (ip), vehicle: Klucel (hydroxypropylcellulose) (HPC)) was 122 % of control. The T/C (dose: 16.0 mg/kg/injection, schedule: Q01DX009 (ip), vehicle: Klucel (hydroxypropylcellulose) (HPC)) was 154 % of control, the T/C [1] was 172 % of control and 181 % of control and the T/C (dose: 25.0 mg/kg/injection, schedule: Q04DX003 (ip), vehicle: saline) was 154 % of control. The T/C (dose: 33.0 mg/kg/injection, schedule: Q04DX003 (ip), vehicle: saline) was 209 % of control, the T/C (dose: 35.0 mg/kg/injection, schedule: Q01DX009 (ip), vehicle: Klucel (hydroxypropylcellulose) (HPC)) was 204 % of control and the T/C (dose: 50.0 mg/kg/injection, schedule: Q04DX003 (ip), vehicle: saline) was 209 % of control and 213 % of control. The T/C (dose: 75.0 mg/kg/injection, schedule: Q04DX003 (ip), vehicle: saline) was 231 % of control and the T/C [11] was 95 % of control.
In the case of `CCOC(=O)C1=C(C)NC(C)=C(C(=O)OCC)C1c1cc(OC)c(OC)c(OC)c1`, the T/C (dose: 25.0 mg/kg/injection, schedule: Q01DX009 (ip), vehicle: other) is reported as 100 % of control, the T/C (dose: 50.0 mg/kg/injection, schedule: Q01DX009 (ip), vehicle: other) is reported as 95 % of control and the T/C (dose: 100.0 mg/kg/injection, schedule: Q01DX009 (ip), vehicle: other) is reported as 96 % of control. The T/C (dose: 200.0 mg/kg/injection, schedule: Q01DX009 (ip), vehicle: other) was 95 % of control and the T/C (dose: 400.0 mg/kg/injection, schedule: Q01DX009 (ip), vehicle: other) was 87 % of control.
For `NC(=O)c1c(Br)n(C2OC(CO)C(O)C2O)c2ncnc(N)c12` (centres undefined), the T/C [2] was 95 % of control.
For `Cc1ccc(S(=O)(=O)N(C)CCC#N)cc1`, the T/C [4] was 90 % of control, the T/C [5] was 90 % of control and the T/C [6] was 100 % of control. For the same molecule, the T/C [7] was 100 % of control, the T/C [12] was 110 % of control and the T/C [8] was 109 % of control.
`CS(=O)(=O)NC(=O)NC(=S)c1ccccc1` was tested, and the T/C (dose: 100.0 mg/kg/injection, schedule: Q01DX001 (ip), vehicle: saline with Tween-80) was 100 % of control, the T/C (dose: 200.0 mg/kg/injection, schedule: Q01DX001 (ip), vehicle: saline with Tween-80) was 100 % of control and the T/C (dose: 400.0 mg/kg/injection, schedule: Q01DX001 (ip), vehicle: saline with Tween-80) was 108 % of control.
`COc1cccc(CNc2ccc(C)c(Cl)c2)c1OC` was tested, and the T/C (dose: 12.5 mg/kg/injection, schedule: Q01DX009 (ip), vehicle: gum acacia) was 92 % of control, the T/C (dose: 25.0 mg/kg/injection, schedule: Q01DX009 (ip), vehicle: gum acacia) was 107 % of control and the T/C (dose: 50.0 mg/kg/injection, schedule: Q01DX009 (ip), vehicle: gum acacia) was 103 % of control. For the same molecule, the T/C (dose: 100.0 mg/kg/injection, schedule: Q04DX003 (ip), vehicle: gum acacia) was 91 % of control, the T/C (dose: 200.0 mg/kg/injection, schedule: Q04DX003 (ip), vehicle: gum acacia) was 95 % of control and the T/C (dose: 400.0 mg/kg/injection, schedule: Q04DX003 (ip), vehicle: gum acacia) was 95 % of control.
With `CSc1ncc(CO)c(N)n1` the T/C [4] was 91 % of control, the T/C [6] was 95 % of control and the T/C [12] was 87 % of control.
With `COc1cc(Cl)c(CC(=O)c2c[nH]c3ccccc23)cc1OC` the T/C [3] was 103 % of control and the T/C [13] was 99 % of control.
In the case of `S=P(N1CC1)(N1CC1)N1CC1`, the T/C (dose: 0.19 mg/kg/injection, schedule: Q01DX009 (ip), vehicle: saline) is reported as 114 % of control, the T/C (dose: 0.75 mg/kg/injection, schedule: Q01DX010 (ip), vehicle: saline) is reported as 90 % of control and the T/C (dose: 1.0 mg/kg/injection, schedule: Q01DX001 (oral), vehicle: saline) is reported as 109 % of control. The T/C (dose: 1.5 mg/kg/injection, schedule: Q01DX009 (ip), vehicle: saline) was 121 % of control, the T/C (dose: 1.5 mg/kg/injection, schedule: Q01DX010 (ip), vehicle: saline) was 90 % of control and 109 % of control and the T/C (dose: 3.0 mg/kg/injection, schedule: Q01DX009 (ip), vehicle: saline) was 112 % of control. For the same molecule, the T/C (dose: 6.0 mg/kg/injection, schedule: Q01DX009 (ip), vehicle: saline) was 91 % of control and 93 % of control and 206 % of control, the T/C (dose: 6.0 mg/kg/injection, schedule: Q01DX010 (ip), vehicle: saline) was 109 % of control and 110 % of control and the T/C (dose: 12.0 mg/kg/injection, schedule: Q01DX009 (ip), vehicle: saline) was 111 % of control.
For `COc1cc(C=Nc2cccc(C(=O)O)c2)ccc1N(CCCl)CCCl`, the T/C (dose: 66.0 mg/kg/injection, schedule: Q04DX003 (ip), vehicle: saline with Tween-80) was 260 % of control.
In the case of `OC(CCl)C(O)C(O)C(O)CCl` (centres undefined), the T/C (dose: 100.0 mg/kg/injection, schedule: Q01DX009 (ip), vehicle: saline with Tween-80) is reported as 100 % of control, the T/C [13] is reported as 113 % of control and the T/C (dose: 400.0 mg/kg/injection, schedule: Q01DX009 (ip), vehicle: saline with Tween-80) is reported as 100 % of control.
With `C[N+]1(C2CCC3CCC2C3O)CCCCC1` (centres undefined) the T/C [11] was 90 % of control and the T/C (dose: 200.0 mg/kg/injection, schedule: Q04DX003 (ip), vehicle: saline) was 122 % of control.
